Results as given in patent publication US8952024B2, “Herbicidal pyrimidone derivatives” (E I du Pont de Nemours and Company, priority 2009, dated 2015).

Key:
Type in all cases: in vivo
soybean (Glycine max) = test: Test B pre-/postemergence plant response
Summary of the method: (§1)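 Steps: sow seed in loam–sand soil and spray preemergence, or grow plants in peat-based medium to 1–4 leaves (2–18 cm) and spray postemergence; formulation is non-phytotoxic solvent plus surfactant; hold in greenhouse 13–15 days; score visually vs controls, 0 = no effect, 100 = complete control.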

[1] = system: velvetleaf (Abutilon theophrasti); test: Test B pre-/postemergence plant response
Summary of the method: as §1

wild oat (Avena fatua) = test: Test B pre-/postemergence plant response
Summary of the method: as §1

[2] = system: woolly cupgrass (Eriochloa villosa); test: Test B pre-/postemergence plant response
Summary of the method: as §1

[3] = system: yellow nutsedge (Cyperus esculentus); test: Test B pre-/postemergence plant response
Summary of the method: as §1

[4] = system: canarygrass (Phalaris minor); test: Test B postemergence plant response
Summary of the method: (§2)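 Plants at the 1- to 4-leaf stage (2 to 18 cm tall), grown in pots of peat moss/vermiculite medium with wetting agent and starter nutrients, received postemergence applications of test chemicals. After 13 to 15 days in a greenhouse, injury was rated visually against untreated controls on a 0 (no effect) to 100 (complete control) scale.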

[5] = system: chickweed (Stellaria media); test: Test B postemergence plant response
Summary of the method: as §2

[6] = system: windgrass (Apera spica-venti); test: Test B postemergence plant response
Summary of the method: as §2

[7] = system: winter barley (Hordeum vulgare); test: Test B postemergence plant response
Summary of the method: as §2

[8] = 62 g ai/ha, postemergence, 0 is no effect, 100 is complete control, 13 to 15 days

## O=C1CCCC(O)=C1C(=O)c1cnc(-c2ccccc2)n(C2CCCCC2)c1=O [Compound 128, 3-cyclohexyl-5-[(2-hydroxy-6-oxo-1-cyclohexen-1-yl)carbonyl]-2-phenyl-4(3H)-pyrimidinone]
Soybean (Glycine max); [8]
  Soybean plant response rating (0 to 100 scale): 98
Soybean (Glycine max); Glycine max, post-emergence, Postemergence, 31 g ai/ha, 0 to 100 scale (0 no effect, 100 complete control), read-out: Plant response rating, Soybean
  plant injury at 31 g/ha: 98%
Soybean (Glycine max); Glycine max, post-emergence, Postemergence, 125 g ai/ha, scale 0 to 100 (0 no effect, 100 complete control), read-out: Plant response rating, Soybean
  plant injury at 125 g/ha: 98%
Soybean (Glycine max); Glycine max, post-emergence, Postemergence, 250 g ai/ha, scale 0 to 100 (0 no effect, 100 complete control), 13 to 15 days, read-out: Plant response rating, Soybean
  plant injury at 250 g/ha: 98%
[1]; [8]
  Velvetleaf plant response rating (0 to 100 scale): 95
[1]; Abutilon theophrasti, post-emergence, 360 h, Postemergence, 31 g ai/ha, 0 to 100 scale (0 no effect, 100 complete control), read-out: Plant response rating, Velvetleaf
  pest or weed control at 31 g/ha: 90%
[1]; Abutilon theophrasti, post-emergence, 360 h, Postemergence, 125 g ai/ha, scale 0 to 100 (0 no effect, 100 complete control), read-out: Plant response rating, Velvetleaf
  pest or weed control at 125 g/ha: 95%
[1]; Abutilon theophrasti, post-emergence, 360 h, Postemergence, 250 g ai/ha, scale 0 to 100 (0 no effect, 100 complete control), 13 to 15 days, read-out: Plant response rating, Velvetleaf
  pest or weed control at 250 g/ha: 100%
Wild oat (Avena fatua); [8]
  Oat, Wild plant response rating (0 to 100 scale): 50
Wild oat (Avena fatua); Avena fatua, post-emergence, Postemergence, 31 g ai/ha, 0 to 100 scale (0 no effect, 100 complete control), read-out: Plant response rating, Oat, Wild
  pest or weed control at 31 g/ha: 40%
Wild oat (Avena fatua); Avena fatua, post-emergence, Postemergence, 125 g ai/ha, scale 0 to 100 (0 no effect, 100 complete control), read-out: Plant response rating, Oat, Wild
  pest or weed control at 125 g/ha: 60%
Wild oat (Avena fatua); Avena fatua, post-emergence, Postemergence, 250 g ai/ha, scale 0 to 100 (0 no effect, 100 complete control), 13 to 15 days, read-out: Plant response rating, Oat, Wild
  pest or weed control at 250 g/ha: 80%
[2]; [8]
  Cupgrass, Woolly plant response rating (0 to 100 scale): 90
[2]; Eriochloa villosa, post-emergence, Postemergence, 31 g ai/ha, 0 to 100 scale (0 no effect, 100 complete control), read-out: Plant response rating, Cupgrass, Woolly
  pest or weed control at 31 g/ha: 85%
[2]; Eriochloa villosa, post-emergence, Postemergence, 125 g ai/ha, scale 0 to 100 (0 no effect, 100 complete control), read-out: Plant response rating, Cupgrass, Woolly
  pest or weed control at 125 g/ha: 90%
[2]; Eriochloa villosa, post-emergence, Postemergence, 250 g ai/ha, scale 0 to 100 (0 no effect, 100 complete control), 13 to 15 days, read-out: Plant response rating, Cupgrass, Woolly
  pest or weed control at 250 g/ha: 95%
[3]; [8]
  Nutsedge, Yellow plant response rating (0 to 100 scale): 35
[3]; Cyperus, post-emergence, Postemergence, 31 g ai/ha, 0 to 100 scale (0 no effect, 100 complete control), read-out: Plant response rating, Nutsedge, Yellow
  pest or weed control at 31 g/ha: 20%
[3]; Cyperus, post-emergence, Postemergence, 125 g ai/ha, scale 0 to 100 (0 no effect, 100 complete control), read-out: Plant response rating, Nutsedge, Yellow
  pest or weed control at 125 g/ha: 60%
[3]; Cyperus, post-emergence, Postemergence, 250 g ai/ha, scale 0 to 100 (0 no effect, 100 complete control), 13 to 15 days, read-out: Plant response rating, Nutsedge, Yellow
  pest or weed control at 250 g/ha: 60%
[4]; [8]
  Canarygrass plant response rating (0 to 100 scale): 10
[4]; Phalaris minor, post-emergence, 360 h, Postemergence, 31 g ai/ha, 0 to 100 scale (0 no effect, 100 complete control), read-out: Plant response rating, Canarygrass
  pest or weed control at 31 g/ha: 10%
[4]; Phalaris minor, post-emergence, 360 h, Postemergence, 125 g ai/ha, scale 0 to 100 (0 no effect, 100 complete control), read-out: Plant response rating, Canarygrass
  pest or weed control at 125 g/ha: 30%
[4]; Phalaris minor, post-emergence, 360 h, Postemergence, 250 g ai/ha, scale 0 to 100 (0 no effect, 100 complete control), 13 to 15 days, read-out: Plant response rating, Canarygrass
  pest or weed control at 250 g/ha: 30%
[5]; [8]
  Chickweed plant response rating (0 to 100 scale): 90
[5]; Stellaria media, post-emergence, 360 h, Postemergence, 31 g ai/ha, 0 to 100 scale (0 no effect, 100 complete control), read-out: Plant response rating, Chickweed
  pest or weed control at 31 g/ha: 90%
[5]; Stellaria media, post-emergence, 360 h, Postemergence, 125 g ai/ha, scale 0 to 100 (0 no effect, 100 complete control), read-out: Plant response rating, Chickweed
  pest or weed control at 125 g/ha: 95%
[5]; Stellaria media, post-emergence, 360 h, Postemergence, 250 g ai/ha, scale 0 to 100 (0 no effect, 100 complete control), 13 to 15 days, read-out: Plant response rating, Chickweed
  pest or weed control at 250 g/ha: 100%
[6]; [8]
  Windgrass plant response rating (0 to 100 scale): 65
[6]; Apera spica-venti, post-emergence, 360 h, Postemergence, 31 g ai/ha, 0 to 100 scale (0 no effect, 100 complete control), read-out: Plant response rating, Windgrass
  pest or weed control at 31 g/ha: 50%
[6]; Apera spica-venti, post-emergence, 360 h, Postemergence, 125 g ai/ha, scale 0 to 100 (0 no effect, 100 complete control), read-out: Plant response rating, Windgrass
  pest or weed control at 125 g/ha: 70%
[6]; Apera spica-venti, post-emergence, 360 h, Postemergence, 250 g ai/ha, scale 0 to 100 (0 no effect, 100 complete control), 13 to 15 days, read-out: Plant response rating, Windgrass
  pest or weed control at 250 g/ha: 85%
[7]; [8]
  Barley plant response rating (0 to 100 scale): 0
[7]; Hordeum vulgare, post-emergence, Postemergence, 31 g ai/ha, 0 to 100 scale (0 no effect, 100 complete control), read-out: Plant response rating, Barley
  plant injury at 31 g/ha: 0%
[7]; Hordeum vulgare, post-emergence, Postemergence, 125 g ai/ha, scale 0 to 100 (0 no effect, 100 complete control), read-out: Plant response rating, Barley
  plant injury at 125 g/ha: 0%
[7]; Hordeum vulgare, post-emergence, Postemergence, 250 g ai/ha, scale 0 to 100 (0 no effect, 100 complete control), 13 to 15 days, read-out: Plant response rating, Barley
  plant injury at 250 g/ha: 5%
